Source: patent US6489364B2, “Antiviral protease inhibitors” (priority 1997, dated 2002)
≈ marks a conversion by molar mass, not a printed value. Where two headings read alike, the source gives them in different places.

Assays:
[1] = molecular target: T1, purified HIV proteinase (Human immunodeficiency virus type 1 group M subtype B, UniProt P04585); test: biochemical
T1 construct: purified HIV proteinase
Description: Representative compounds were tested for HIV protease activity in a spectrophotometric enzyme assay using the chromogenic substrate His-Lys-Ala-Arg-Val-Leu-p-nitro-Phe-Glu-Ala-Nle-Ser-amide and purified HIV proteinase. The rate of cleavage is followed by continuously registering the change in absorbance at 300 nm. […]

[2] = test system: HIV-1; test: HIV-1 infected MT4 cell culture, XTT assay; format: cell-based
Description: Compounds are also tested for HIV protease activity in cell culture. MT4 cells grown in RPMI 1640 cell culture medium including 10% fetal calf serum are infected with 10 TCID HIV-1 per 2×10^5 cells and cultured for 6 days. XTT is added and the amount of XTT formazan produced in the following 6 hours represents the number of surviving cells. Results are expressed as the ED50, that is the concentration in μg/ml of the compound of the invention which suppresses viral replication by 50%.

[3] = values in parentheses, affinity constant, read-out: (Ki μM)
[4] = Human immunodeficiency virus 1, 144 h, second part of Table 1, head EC50, MT4 cells, HIV-1, 6 days, XTT, read-out: EC50
[5] = Human immunodeficiency virus 1, MT4, 144 h

O=C(N[C@H]1c2ccccc2C[C@H]1O)[C@H](OCc1ccc(F)cc1F)[C@H](O)[C@@H](O)[C@@H](OCc1ccc(F)cc1F)C(=O)N[C@H]1c2ccccc2C[C@H]1O [Example 21, N1,N6-di[(1S,2R)-2-hydroxy-2,3-dihydro-1H-1-indenyl]-(2R,3R,4R,5R)-2,5-di(2,4-difluorobenzyloxy)-3,4-dihydroxyhexanediamide] showed a Ki [1, 3] of 0.38 nM and an EC50 [2, 4] of 0.1 µg/mL (≈ 0.138 µM).
O=C(NC1c2ccccc2CC1O)C(OCc1ccccc1)C(O)C(O)C(OCc1ccccc1)C(=O)NC1c2ccccc2CC1O [Example 10, N1,N6-di[(1S,2R)-2-hydroxy-2,3-dihydro-1H-1-indenyl]-(2R,3R,4R,5R)-2.5-di(benzyloxy)-3,4-dihydroxyhexanediamide] showed a Ki [1] of 1.6 nM.
CCOC1=C(c2ccc(CO[C@@H](C(=O)N[C@H](C(=O)NC)C(C)C)[C@H](O)[C@@H](O)[C@@H](OCc3ccc(C4=C(OCC)C(=O)CCC4)cc3)C(=O)N[C@H](C(=O)NC)C(C)C)cc2)CCCC1=O [Example 32] was tested, and the Ki [1, 3] was 0.3 nM and the EC50 [2, 4] was 0.2 µg/mL (≈ 0.224 µM).
CNC(=O)[C@@H](NC(=O)[C@H](OCc1ccc(/C=C/C(=O)OC)cc1)[C@H](O)[C@@H](O)[C@@H](OCc1ccc(/C=C/C(=O)OC)cc1)C(=O)N[C@H](C(=O)NC)C(C)C)C(C)C [Example 31] was tested, and the Ki [1] was 0.09 nM and the EC50 [2, 5] was 0.3 µg/mL (≈ 0.383 µM).
CCC(C)[C@H](NC(=O)[C@H](OCc1ccccc1)[C@H](O)[C@@H](O)[C@@H](OCc1ccccc1)C(=O)N[C@H](C(=O)NC)C(C)CC)C(=O)NC (stereo partly drawn) [Example 4, N1,N6-di[(1S)-2-methyl-1-(methylcarbamoyl)butyl]-(2R,3R,4R,5R)-2,5-di(benzyloxy)-3,4-dihydroxyhexanediamide] was tested, and the Ki [1, 3] was 9 nM.
Work on CNC(=O)C(NC(=O)C(OCc1ccccc1F)C(O)C(O)C(OCc1ccccc1F)C(=O)NC(C(=O)NC)C(C)C)C(C)C [Example 19, N1,N6-di[(1S)-2-methyl-1-(methylcarbamoyl)propyl]-(2R,3R,4R,5R)-2,5-di[4-(2-fluorobenzyl)oxy]-3,4-dihydroxyhexanediamide] yielded a Ki [1, 3] of 0.5 nM and an EC50 [2, 4] of 0.8 µg/mL (≈ 1.23 µM).
CNC(=O)[C@@H](NC(=O)[C@H](OCc1ccccc1)[C@H](O)[C@@H](O)[C@@H](OCc1ccccc1)C(=O)N[C@H](C(=O)NC)c1ccccc1)c1ccccc1 [Example 16, N1,N6-di[(1S)-1-phenyl-1-(methylcarbamoyl)methyl]-(2R,3R,4R,5R)-2,5-di(benzyloxy)-3,4-dihydroxyhexanediamide] gave a Ki ([1]; read-out: (Ki μM)) of 2.3 nM and an EC50 [2, 5] of 1 µg/mL (≈ 1.46 µM).
With CNC(=O)[C@@H](NC(=O)[C@H](OCc1ccc(-c2cccs2)cc1)[C@H](O)[C@@H](O)[C@@H](OCc1ccc(-c2cccs2)cc1)C(=O)N[C@H](C(=O)NC)C(C)C)C(C)C [Example 25, N1,N6-di[(1S)-2-methyl-1-(methylcarbamoyl)propyl]-(2R,3R,4R,5R)-2,5-di[4-(2-thienyl)benzyloxy]-3,4-dihydroxyhexanediamide] the Ki [1] was 0.17 nM and the EC50 [2, 5] was 0.02 µg/mL (≈ 0.0257 µM).
Work on CNC(=O)[C@@H](NC(=O)[C@H](OCc1ccc(F)cc1)[C@H](O)[C@@H](O)[C@@H](OCc1ccc(F)cc1)C(=O)N[C@H](C(=O)NC)C(C)C)C(C)C [Example 7, N1,N6-di[(1S)-2-methyl-1-(methylcarbamoyl)propyl]-(2R,3R,4R,5R)-2,5-di[(4-fluorobenzyl)oxy]-3,4-dihydroxyhexanediamide] yielded a Ki [1, 3] of 2.3 nM.
O=C(N[C@H]1c2ccccc2C[C@H]1O)[C@H](OCc1ccc(F)cc1)[C@H](O)[C@@H](O)[C@@H](OCc1ccc(F)cc1)C(=O)N[C@H]1c2ccccc2C[C@H]1O [Example 13, N1,N6-di[(1S,2R)-2-hydroxy-2,3-dihydro-1H-1-indenyl]-(2R,3R,4R,5R)-2,5-di(4-fluorobenzyloxy)-3,4-dihydroxyhexanediamide] showed a Ki [1, 3] of 0.07 nM and an EC50 [2, 4] of 0.2 µg/mL (≈ 0.29 µM).
CNC(=O)[C@@H](NC(=O)[C@H](OCc1ccccc1)[C@H](O)[C@@H](O)[C@@H](OCc1ccccc1)C(=O)N[C@H](C(=O)NC)C(C)C)C(C)C [Example 1, N1,N6-di[(1S)-2-methyl-1-(methylcarbamoyl)propyl]-(2R,3R,4R,5R)-2,5-di(benzyloxy)-3,4-dihydroxyhexanediamide] gave an IC50 [1] of 15 nM.
With CNC(=O)C(NC(=O)C(CC(O)C(OCc1ccccc1)C(=O)NC(C(=O)NC)C(C)C)OCc1ccccc1)C(C)C [Example 3, N1,N6-di[(1S)-2-methyl-1-(methylcarbamoyl)propyl]-(2R,3R,5R)-2,5-di(benzaloxy)-3-hydroxyhexanediamide] the IC50 ([1]; values printed without parentheses, concentration inhibiting enzyme performance by 50%) was 4 nM.
For CNC(=O)C(NC(=O)C(OCc1ccc(-c2ccccn2)cc1)C(O)C(O)C(OCc1ccc(-c2ccccn2)cc1)C(=O)NC(C(=O)NC)C(C)C)C(C)C [Example 22, N1,N6-di[(1S)-2-methyl-1-(methylcarbamoyl)propyl]-(2R,3R,4R,5R)-2.5-di[4-(2-pyridyl)benzyloxy]-3,4-dihydroxyhexanediamide], the Ki [1] was 0.61 nM and the EC50 [2, 5] was 0.4 µg/mL (≈ 0.52 µM).
CNC(=O)C(NC(=O)C(OCc1ccc(-c2ccccc2)cc1)C(O)C(O)C(OCc1ccc(-c2ccccc2)cc1)C(=O)NC(C(=O)NC)C(C)C)C(C)C [Example 14, N1,N6-di[(1S)-2-methyl-1-(methylcarbamoylpropyl]-(2R,3R,4R,5R)-2,5-di[(4-phenylbenzyl)oxy]-3,4-dihydroxyhexanediamide] gave a Ki [1] of 0.67 nM and an EC50 [2, 5] of 0.04 µg/mL (≈ 0.0522 µM).
CC(C)[C@H](NC(=O)[C@H](OCc1ccccc1)[C@H](O)[C@@H](O)[C@@H](OCc1ccccc1)C(=O)N[C@H]1c2ccccc2C[C@H]1O)C(=O)NCc1ccccn1 [Example 28, N1-[(1S,2R)-2-hydroxy-2,3-dihydro-1H-1-indenyl]-N6-[(1S)-2-methyl-1-([2-pyridylmethyl]carbamoyl)propyl]-(2R,3R,4R,5R,)-2,5-di(benzyloxy)-3,4-dihydroxyhexanediamide] showed an EC50 ([2]; second part of Table 1, head EC50, MT4 cells, HIV-1, 6 days, XTT) of 0.2 µg/mL (≈ 0.281 µM).
O=C(NCc1c(F)cccc1Cl)[C@H](OCc1ccccc1F)[C@H](O)[C@@H](O)[C@@H](OCc1ccccc1F)C(=O)N[C@H]1c2ccccc2C[C@H]1O [Example 27, N1-[(1S,2R)-2-hydroxy-2,3-dihydro-1H-1-indenyl]-N6-(2-chloro-6-fluorobenzyl)-(2R,3R,4R,5R,)-2,5-di(2-fluorobenzyloxy)-3,4-dihydroxyhexanediamide] gave a Ki [1, 3] of 1.4 nM and an EC50 [2, 4] of 0.8 µg/mL (≈ 1.14 µM).
In the case of CNC(=O)[C@@H](NC(=O)[C@H](OCc1ccccc1C)[C@H](O)[C@@H](O)[C@@H](OCc1ccccc1C)C(=O)N[C@H](C(=O)NC)C(C)C)C(C)C [Example 9, N1,N6-di[(1S)-2-methyl-1-(methylcarbamoyl)propyl]-(2R,3R,4R,5R)-2,5-di[(2-methylbenzyl)oxy]-3,4-dihydroxyhexanediamide], the Ki [1, 3] is reported as 3.5 nM.
O=C(N[C@H]1c2ccccc2C[C@H]1O)[C@H](OCc1cccc(F)c1)[C@H](O)[C@@H](O)[C@@H](OCc1cccc(F)c1)C(=O)N[C@H]1c2ccccc2C[C@H]1O [Example 18, N1,N6-di[(1 S,2R)-2-hydroxy-2,3-dihydro-1H-1-indenyl]-(2R,3R,4R,5R)-2,5-di(3-fluorobenzyloxy)-3,4-dihydroxyhexanediamide] showed a Ki [1, 3] of 50 nM and an EC50 [2, 4] of 0.5 µg/mL (≈ 0.726 µM).
Work on CNC(=O)[C@@H](NC(=O)[C@H](OCc1ccc(-c2cccc([N+](=O)[O-])c2)cc1)[C@H](O)[C@@H](O)[C@@H](OCc1ccc(-c2cccc([N+](=O)[O-])c2)cc1)C(=O)N[C@H](C(=O)NC)C(C)C)C(C)C [Example 24, N1,N6-di[(1S)-2-methyl-1-(methylcarbamoyl)propyl]-(2R,3R,4R,5R)-2,5-di[(4-(3-nitrophenyl)benzyl)oxy]-3,4-dihydroxyhexanediamide] yielded a Ki [1] of 1.4 nM and an EC50 [2, 5] of 0.4 µg/mL (≈ 0.467 µM).
For CNC(=O)[C@@H](NC(=O)[C@H](OCc1ccc(C2=C(O)C(=O)CCC2)cc1)[C@H](O)[C@@H](O)[C@@H](OCc1ccc(C2=C(O)C(=O)CCC2)cc1)C(=O)N[C@H](C(=O)NC)C(C)C)C(C)C [Example 33], the Ki [1] was 0.5 nM and the EC50 [2, 5] was 0.2 µg/mL (≈ 0.24 µM).
CC(C)C(NC(=O)C(OCc1ccccc1)C(O)C(O)C(OCc1ccccc1)C(=O)NC(C(=O)NC1CC1)C(C)C)C(=O)NC1CC1 [Example 8, N1,N6-di[(1S)-2-methyl-1-(cyclopropylcarbamoyl)propyl]-(2R,3 R,4R,5R)-25-di(benzyloxy)-3,4-dihydroxyhexanediamide] gave a Ki [1, 3] of 3.4 nM.
In the case of CNC(=O)[C@@H](NC(=O)[C@H](OCc1ccc(-c2ccsc2)cc1)[C@H](O)[C@@H](O)[C@@H](OCc1ccc(-c2ccsc2)cc1)C(=O)N[C@H](C(=O)NC)C(C)C)C(C)C [Example 15, N1,N6-di[(1S)-2-methyl-1-(methylcarbamoyl)propyl]-(2R,3R,4R,5R)-2,5-di[4-(3-thienyl)benzyloxy]-3,4-dihydroxyhexanediamide], the Ki [1] is reported as 1.2 nM and the EC50 [2, 5] is reported as 0.03 µg/mL (≈ 0.0385 µM).
With O=C(N[C@H]1c2ccccc2C[C@H]1O)[C@H](OCc1ccccc1F)[C@H](O)[C@@H](O)[C@@H](OCc1ccccc1F)C(=O)N[C@H]1c2ccccc2C[C@H]1O [Example 12, N1,N6-di[(1S,2R)-2-hydroxy-2,3-dihydro-1H-1-indenyl]-(2R,3R,4R,5R)-2,5-di(2-fluorobenzyloxy)-3,4-dihydroxyhexanediamide] the Ki [1, 3] was 0.13 nM and the EC50 [2, 4] was 0.04 µg/mL (≈ 0.0581 µM).
O=C(N[C@H]1c2ccccc2C[C@H]1O)[C@@H](C[C@@H](O)[C@@H](OCc1ccccc1)C(=O)N[C@H]1c2ccccc2C[C@H]1O)OCc1ccccc1 [Example 26, N1,N6-di[(1S,2R)-2-hydroxy-2,3-dihydro-1H-1-indenyl]-(2R,3R,5R)-2,5-di(benzyloxy)-3-hydroxyhexanediamide] was tested, and the Ki [1, 3] was 0.97 nM and the EC50 [2, 4] was 0.8 µg/mL (≈ 1.26 µM).
Work on CNC(=O)C(NC(=O)C(OCc1cccc(F)c1)C(O)C(O)C(OCc1cccc(F)c1)C(=O)NC(C(=O)NC)C(C)C)C(C)C (stereo not drawn) [Example 17] yielded a Ki [1, 3] of 2 nM and an EC50 [2, 4] of 0.8 µg/mL (≈ 1.23 µM).
